Assay results published in patent publication US20240376100A1 (Redona Therapeutics, Inc., priority 2021, published 2024).
Structures can show the parent of a compound that is named as a salt.

Each compound was assayed against PAPD5 enzyme (Homo sapiens, UniProt Q8NDF8) (assay: PAPD5 assay (AMP incorporation onto 3'-terminus of RNA substrate, fluorescence quench)). Details: PAPD5 protein 0.3 nM, ATP 50 μM, 30 minutes preincubation, room temperature; read-out: Potency PAPD5 IC50.
Format: biochemical
Experimental: The purpose of the PAPD5 assay is to determine compound potency against PAPD5 enzyme through the measurement of IC50. Compound inhibition is measured as a function of AMP incorporation onto the 3′-terminus of an RNA substrate in the presence of active PAPD5, ATP, and inhibitor. The PAPD5 assay was done in a black, non-binding, 384 well plate (Corning #3575). All steps were performed at room temperature. For a typical assay, a 40 ul aliquot of assay buffer (50 mM HEPES pH 7.3, 20 mM KCl, 10 mM MgCl2, 10 mMM DTT, 0.01% Triton X-100, 40 U/ml RNAsin (Promega)) containing PAPD5 protein (final 10 concentration: 0.3 nM) and ATP (final concentration 50 μM) was added to each well. Next, 1 ul of compound in 100% DMSO is transferred from a compound dilution plate in which the compound is serially diluted. The plate was placed on a plate shaker for 30 seconds to produce mixing, then incubated for 30 minutes. Next, 10 ul of a 5× mix of RNA substrate (5′-fluorescein-AUAGAG-3′ (IDT)) and a DNA oligonucleotide that is complementary to the AMP modified RNA product (5′-TCTCTATT-3′-TAMRA, wherein the first two nucleotides are locked nucleic acids (IDT)) was added (final concentrations: 5 nM and 20 nM, respectively). The plate was placed on a plate shaker for 30 seconds to produce mixing then immediately placed in a Biotek Cytation 5 plate reader, and the time-dependent decrease in fluorescein fluorescence resulting from annealing of the TAMRA labeled quenching probe was recorded, using the kinetics mode of the reader (typical run time is 90 minutes). Reaction rates were obtained using linear fits to the early portion of progress curves. IC50 values were calculated using a four-parameter fit with 100% enzyme activity determined from the DMSO control and 0% activity from control samples lacking UTP.
“+” represents an IC50 value that is greater than 50 PM; “++” represents an IC50 value that is greater than 10 μM and equal to or less than 50 μM; “+++” represents an IC50 value that is greater than 1 μM and equal to or less than 10 μM; and “++++” represents an IC50 value that is equal to or less than 1 μM.

Chain of PAPD5 enzyme (Q8NDF8 whole entry): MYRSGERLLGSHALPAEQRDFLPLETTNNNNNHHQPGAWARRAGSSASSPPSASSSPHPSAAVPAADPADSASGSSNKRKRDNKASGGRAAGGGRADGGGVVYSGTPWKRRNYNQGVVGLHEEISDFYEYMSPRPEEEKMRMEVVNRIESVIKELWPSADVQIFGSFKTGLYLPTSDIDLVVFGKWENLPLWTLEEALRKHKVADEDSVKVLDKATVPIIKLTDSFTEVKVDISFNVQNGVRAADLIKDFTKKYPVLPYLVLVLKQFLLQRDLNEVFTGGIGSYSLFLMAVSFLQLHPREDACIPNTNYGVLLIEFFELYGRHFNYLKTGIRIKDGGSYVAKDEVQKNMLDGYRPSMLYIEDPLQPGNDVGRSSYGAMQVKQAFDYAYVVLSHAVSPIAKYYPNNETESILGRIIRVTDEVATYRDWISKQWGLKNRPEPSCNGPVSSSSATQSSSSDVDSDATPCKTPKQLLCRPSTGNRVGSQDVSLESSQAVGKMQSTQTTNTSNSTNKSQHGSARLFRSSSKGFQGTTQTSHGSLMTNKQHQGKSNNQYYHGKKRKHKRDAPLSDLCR

IC50, ≤ 1000 nM:
Cc1cc(O)ncc1-n1cc(C(=O)O)c(=O)c2cc(C#N)c(N3Cc4cccnc4C3)cc21 [Example 60, 6-cyano-7-(5,7-dihydro-6H-pyrrolo[3,4-b]pyridin-6-yl)-1-(6-hydroxy-4-methylpyridin-3-yl)-4-oxo-1,4-dihydroquinoline-3-carboxylic acid]
CC1(Cn2cc(C(=O)O)c(=O)c3cc(Cl)c(N4Cc5cccnc5C4)nc32)CCC1 [Example 61, 6-chloro-7-(5,7-dihydro-6H-pyrrolo[3,4-b]pyridin-6-yl)-1-((1-methylcyclobutyl)methyl)-4-oxo-1,4-dihydro-1,8-naphthyridine-3-carboxylic acid]
N#Cc1cc2c(=O)c(C(=O)O)cn(CC3CCCC3)c2nc1N1Cc2cccnc2C1 [Example 62, 6-cyano-1-(cyclopentylmethyl)-7-(5,7-dihydro-6H-pyrrolo[3,4-b]pyridin-6-yl)-4-oxo-1,4-dihydro-1,8-naphthyridine-3-carboxylic acid]
N#Cc1cc2c(=O)c(C(=O)O)cn(CC3CCCCC3)c2nc1N1Cc2cccnc2C1 [Example 63, 6-cyano-1-(cyclohexylmethyl)-7-(5,7-dihydro-6H-pyrrolo[3,4-b]pyridin-6-yl)-4-oxo-1,4-dihydro-1,8-naphthyridine-3-carboxylic acid]
Cc1ccnc2c1CN(c1nc3c(cc1Cl)c(=O)c(C(=O)O)cn3-c1cnccn1)C2 [Example 64, 6-chloro-7-(4-methyl-5,7-dihydro-6H-pyrrolo[3,4-b]pyridin-6-yl)-4-oxo-1-(pyrazin-2-yl)-1,4-dihydro-1,8-naphthyridine-3-carboxylic acid]
O=C(O)c1cn(Cc2ccccn2)c2nc(N3Cc4cccnc4C3)c(Cl)cc2c1=O [Example 65, 6-chloro-7-(5,7-dihydro-6H-pyrrolo[3,4-b]pyridin-6-yl)-4-oxo-1-(pyridin-2-ylmethyl)-1,4-dihydro-1,8-naphthyridine-3-carboxylic acid]
O=C(O)c1cn(Cc2ccncc2)c2nc(N3Cc4cccnc4C3)c(Cl)cc2c1=O [Example 66, 6-chloro-7-(5,7-dihydro-6H-pyrrolo[3,4-b]pyridin-6-yl)-4-oxo-1-(pyridin-4-ylmethyl)-1,4-dihydro-1,8-naphthyridine-3-carboxylic acid]
O=C(O)c1cn(Cc2cccnc2)c2nc(N3Cc4cccnc4C3)c(Cl)cc2c1=O [Example 67, 6-chloro-7-(5,7-dihydro-6H-pyrrolo[3,4-b]pyridin-6-yl)-4-oxo-1-(pyridin-3-ylmethyl)-1,4-dihydro-1,8-naphthyridine-3-carboxylic acid]
O=C(O)c1cn(Cc2ccccc2F)c2nc(N3Cc4cccnc4C3)c(Cl)cc2c1=O [Example 68, 6-chloro-7-(5,7-dihydro-6H-pyrrolo[3,4-b]pyridin-6-yl)-1-(2-fluorobenzyl)-4-oxo-1,4-dihydro-1,8-naphthyridine-3-carboxylic acid]
O=C(O)c1cn(Cc2ccccc2Cl)c2nc(N3Cc4cccnc4C3)c(Cl)cc2c1=O [Example 69, 6-chloro-1-(2-chlorobenzyl)-7-(5,7-dihydro-6H-pyrrolo[3,4-b]pyridin-6-yl)-4-oxo-1,4-dihydro-1,8-naphthyridine-3-carboxylic acid]
Cc1ccccc1Cn1cc(C(=O)O)c(=O)c2cc(Cl)c(N3Cc4cccnc4C3)nc21 [Example 70, 6-chloro-7-(5,7-dihydro-6H-pyrrolo[3,4-b]pyridin-6-yl)-1-(2-methylbenzyl)-4-oxo-1,4-dihydro-1,8-naphthyridine-3-carboxylic acid]
COc1ncccc1Cn1cc(C(=O)O)c(=O)c2cc(Cl)c(N3Cc4cccnc4C3)nc21 [Example 71, 6-chloro-7-(5,7-dihydro-6H-pyrrolo[3,4-b]pyridin-6-yl)-1-((2-methoxypyridin-3-yl)methyl)-4-oxo-1,4-dihydro-1,8-naphthyridine-3-carboxylic acid]
CC(C)(C)OC(=O)N1CCC(Cn2cc(C(=O)O)c(=O)c3cc(Cl)c(N4Cc5cccnc5C4)nc32)CC1 [Example 72, 1-((1-(tert-butoxycarbonyl)piperidin-4-yl)methyl)-6-chloro-7-(5,7-dihydro-6H-pyrrolo[3,4-b]pyridin-6-yl)-4-oxo-1,4-dihydro-1,8-naphthyridine-3-carboxylic acid]
CC(C)(C)OC(=O)N1CCC(n2cc(C(=O)O)c(=O)c3cc(Cl)c(N4Cc5cccnc5C4)nc32)CC1 [Example 73, 1-(1-(tert-butoxycarbonyl)piperidin-4-yl)-6-chloro-7-(5,7-dihydro-6H-pyrrolo[3,4-b]pyridin-6-yl)-4-oxo-1,4-dihydro-1,8-naphthyridine-3-carboxylic acid]
COc1cnc(-n2cc(C(=O)O)c(=O)c3cc(Cl)c(N4Cc5cccnc5C4)nc32)cn1 [Example 74, 6-chloro-7-(5,7-dihydro-6H-pyrrolo[3,4-b]pyridin-6-yl)-1-(5-methoxypyrazin-2-yl)-4-oxo-1,4-dihydro-1,8-naphthyridine-3-carboxylic acid]
COc1cnc(-n2cc(C(=O)O)c(=O)c3cc(F)c(N4Cc5cccnc5C4)cc32)cn1 [Example 75, 7-(5,7-dihydro-6H-pyrrolo[3,4-b]pyridin-6-yl)-6-fluoro-1-(5-methoxypyrazin-2-yl)-4-oxo-1,4-dihydroquinoline-3-carboxylic acid]
COc1cnc(-n2cc(C(=O)O)c(=O)c3cc(Cl)c(N4Cc5cccnc5C4)cc32)cn1 [Example 76, 6-chloro-7-(5,7-dihydro-6H-pyrrolo[3,4-b]pyridin-6-yl)-1-(5-methoxypyrazin-2-yl)-4-oxo-1,4-dihydroquinoline-3-carboxylic acid]
Cc1cc(N)ncc1-n1cc(C(=O)O)c(=O)c2cc(F)c(N3Cc4cccnc4C3)nc21 [Example 77, 1-(6-amino-4-methylpyridin-3-yl)-7-(5,7-dihydro-6H-pyrrolo[3,4-b]pyridin-6-yl)-6-fluoro-4-oxo-1,4-dihydro-1,8-naphthyridine-3-carboxylic acid TFA salt]
Cc1cc(N)ncc1-n1cc(C(=O)O)c(=O)c2cc(Cl)c(N3Cc4cccnc4C3)nc21 [Example 78, 1-(6-amino-4-methylpyridin-3-yl)-6-chloro-7-(5,7-dihydro-6H-pyrrolo[3,4-b]pyridin-6-yl)-4-oxo-1,4-dihydro-1,8-naphthyridine-3-carboxylic acid TFA salt]
Cc1cc(N)ncc1-n1cc(C(=O)O)c(=O)c2cc(F)c(N3Cc4cccnc4C3)cc21 [Example 79, 1-(6-amino-4-methylpyridin-3-yl)-7-(5,7-dihydro-6H-pyrrolo[3,4-b]pyridin-6-yl)-6-fluoro-4-oxo-1,4-dihydroquinoline-3-carboxylic acid TFA salt]
Cc1cc(N)ncc1-n1cc(C(=O)O)c(=O)c2cc(C#N)c(N3Cc4cccnc4C3)cc21 [Example 80, 1-(6-amino-4-methylpyridin-3-yl)-6-cyano-7-(5,7-dihydro-6H-pyrrolo[3,4-b]pyridin-6-yl)-4-oxo-1,4-dihydroquinoline-3-carboxylic acid]
CC(=O)Nc1cc(C)c(-n2cc(C(=O)O)c(=O)c3cc(Cl)c(N4Cc5cccnc5C4)cc32)cn1 [Example 81, 1-(6-acetamido-4-methylpyridin-3-yl)-6-chloro-7-(5,7-dihydro-6H-pyrrolo[3,4-b]pyridin-6-yl)-4-oxo-1,4-dihydroquinoline-3-carboxylic acid]
